Measurements published in patent US6133313A, “Insecticidal avocadofurans and triolein” (The Regents of the University of California, priority 1998, dated 2000).

Assays:
[1] = in words; cited from earlier work
S. exigua larvae [2] = assay: growth inhibition and mortality of synthetic avocadofurans and triolein in diet bioassay; format: in vivo, Spodoptera exigua; set-up: key to GI (growth index): growth index calculated per J. Chem. Ecol. 19:1109 (1993), imax = 3; settings: for 7-d Instar / 7-d Larval Weight: mean ± SE
Description: S. exigua larvae were used in all experiments. Larvae were reared on artificial diet modified from U.S.D.A. Agric. Res. Serv., Prod. Res. Rep., 1208:1 (1969), and maintained at 28+2° C., 14:10; light:dark (L:D) photoperiod.
The colony was collected from Orange Co., Calif. and had new genetic material added within 12 months prior to the study. The age of the cohorts tested was standardized by using neonates within 12 hours of eclosion. All bioassays were maintained at 28+2° C. 75% relative humidity (RH), and at 14:10 (L:D) photoperiod with fluorescent lighting.
The insecticidal activity of the fractions was tested with artificial diet bioassays. Treated diets were prepared by transferring 750 μl of acetone solutions of each fraction (equivalent to 300 mg crude idioblast cell oil) into 50-ml polypropylene centrifuge tubes (Fisher, Pittsburgh Pa.), evaporating the acetone, adding 2 ml of 0.1% Tween-80 solution (Fisher), homogenizing with an ultrasonic homogenizer (Co le-Parmer, Chicago Ill.), and adding prepared diet to produce a final weight of 15 g containing the equivalent of 2% idioblast oil. The mixture was vortexed for 3 mm.
Control diet was prepared by mixing 2 ml of Tween solution and 13 g of artificial diet to produce a final weight of 15 g. Control and treated diets were poured into 24-well (15.9 mm diameter and 15.9 mm depth) bioassay trays (C-D International Inc., Pitman N.J.). One neonate was added per well, and trays were placed in an incubator under the previously described conditions. Twenty-four neonates were tested for each fraction and control. Mortality and larval weights were recorded after 7 days.
The effect of the synthetically produced avocado furan compounds (>95% purity) and commercially available triolein (Sigma, St. Louis, Mo.) were tested on larval growth and mortality of S exigua. Treated and control diet were prepared as previously described.
Six different compound concentrations, chosen on the basis of studies with the oil fractions, were evaluated for both 2-(pentadecyl)furan and 2-(heptadecyl)furan: 0 (control), 600, 750, 900, 1050, and 1200 μg/g. Also, six concentrations of triolein (subfraction 1-1-12) were tested: 0 (control), 7000, 8000, 9000, 10000, and 11000 μg/g.
Twenty-four neonates were used per treatment. Bioassays were conducted as described in Example 4, and replicated 4 times for each concentration (i.e., a total of 96 larvae were tested for each concentration). Larval weight, instar, and mortality were recorded after 7 days […].
(§1) EC (effective concentration) values were calculated by subtracting the mean larval weight for each treatment from the mean weight of the controls, and dividing by the mean weight of the controls. LC (lethal concentration) values were obtained using probit analysis as described in Probit Analysis (1971) Cambridge University Press, Cambridge, UK. GI (growth index) and RGI (relative growth index) values were calculated as described in J. Chem. Ecol., 19:1109 (1993), but using an imax of 3 (the stage attained by most control larvae after 7 d). Statistical comparisons were conducted using SuperAnova Abacus Concept Inc., Berkeley, Calif. (1989).

S. exigua larvae [3] = assay: as above; format: in vivo, Spodoptera exigua; settings: 3,500 μg/g
S. exigua = assay: synergistic/joint toxicity of avocadofuran and triolein combinations; format: in vivo, Spodoptera exigua
Excerpt: The treatments were as follows: Control, 2-(pentadecyl)furan, 2-(heptadecyl)furan, triolein, individually, and 2-(pentadecyl)furan combined with 2-(heptadecyl)furan and triolein, 2-(pentadecyl)furan combined with triolein, and 2-(heptadecyl)furan combined with triolein. Because the combined LC25 s for both avocadofurans exceed their LC50 values, a concentration for each was adjusted so that when added it would approximate the value of the avocadofurans LC50 (see Table 2). These concentrations were used whenever both avocadofurans were combined in the same treatment. Treatments were replicated four times, with 15 larvae per replicate to a total of 60 larvae/treatment.
Joint effects were determined by testing all combinations of LC25 s (estimated from probit lines shown in Table 1) of the three compounds for toxicity to S. exigua. The treatments were: control, 2-(pentadecyl)furan, 2-(heptadecyl)furan, triolein, 2-(pentadecyl)furan+triolein, 2-(heptadecyl)furan+triolein, and 2-(pentadecyl)furan+2-(heptadecyl)furan+triolein. Because the combined LC25 s for both avocadofurans exceeded their LC50 values (due to a steep slope of their LC lines), a concentration for each was used so that when added together it would approximate the value of the avocadofurans LC50 (Table 1). These concentrations were used whenever both avocadofurans were combined in the same treatment.
Treatments were replicated four times, with 15 larvae per replicate (total of 60 larvae/treatment). Dietary treatment preparations and bioassay procedures were conducted as described in Example 4. For each diet treatment, 9-d larval instar and weight, pupal weights, times to pupation, and larval mortality were recorded.

neonate S. exigua = assay: individual toxicity of avocadofurans and triolein in artificial diet; format: in vivo, Spodoptera exigua
Description: In this study, individual activity of avocadofurans was investigated quantitatively. For this purpose, eight concentrations of the avocadofurans (1) and (4) and triolein (8) were tested. Results are seen in FIG. 6.
Following pilot studies, eight concentrations of each were tested: 0, 0.5, 1, 1.5, 2, 2.5, 3, and 3.5 μmoles g^~1 diet. Also, five concentrations of triolein were tested: 0; 1,000; 2,000; 3,000; and 4,000 μg g^~1 diet. Because triolein was not compared to a structurally similar compound, a more standard dietary formulation of μg g-^1 was used rather than ^~ moles g^-1 in all triolein-treated bioassays.
Treated and control diet were prepared as described above. For each concentration the compounds were dissolved in 10 ml of Tween solution and mixed using an ultrasonic homogenizer. Untreated diet was added to make a total of 100 g and then vortexed for 3 mm. Control diet was prepared by mixing 10 ml of the Tween solution with 90 g of artificial diet to produce a final weight of 100 g. Control and treated diets were poured into 30 ml plastic cups. One neonate was placed in each cup and cups were held in an incubator. Fifteen larvae were tested at each concentration, and assays were replicated 4 times (total of 60 larvae/treatment). For each diet treatment, 9-d larval instar and weight, pupal weights, times to pupation, and larval mortality were recorded.
as §1

S. exigua larvae [4] = assay: toxicity of furan analogs of variable side chain length in diet assay; format: in vivo, Spodoptera exigua; settings: 5 μmoles g^-1 diet
Description: To determine the toxicity of avocadofurans and their furan analogs, five saturated furans of variable side chain lengths, namely 2-(tetradecyl)furan compound (20), 2-(pentadecyl)furan (1), 2-(hexadecyl)furan compound (21), 2-(heptadecyl)furan (4), and 2-(octadecyl)furan compound (22) were tested for their activity against S. exigua in diet assay. Diets for treatments were prepared at a concentration known to be insecticidal against S. exigua early instar of 5 μmoles g^-1 diet. To compare toxicity among furans, concentration in μmoles g^-1 diet were adjusted according to the molecular weights of individual furans.
Five saturated furans of variable side chain lengths: 2-(tetradecyl)furan (20), 2-(pentadecyl)furan (1), 2-(hexadecyl)furan (21), 2-(heptadecyl)furan (4), and 2-(octadecyl)furan (22) were tested for activity against S. exigua in diet bioassays. Treated diets were prepared at a concentration known to be insecticidal against S. exigua early instars (5 μmoles g^-1 diet). To compare toxicity among furans, concentrations in μmoles g^-1 of diet were used to compensate for their different molecular weights.
Each furan compound was transferred into a 50-ml polypropylene centrifuge tube (Fisher, Pittsburgh Pa.), added 2 ml of 0.1% Tween-80 solution (Fisher), homogenized with an ultrasonic homogenizer (Cole-Parmer, Chicago, Ill.), and artificial diet was added to produce a final weight of 15 g. The mixture was vortexed for 3 mm. Control diet was prepared by mixing 2 ml of Tween solution with 13 g of artificial diet to produce a final weight of 15 g. Control and treated diets were poured into 16-well bioassay trays (C-D International Inc., Pitman N.J.). One neonate was added per well. Trays were placed in an incubator set for conditions described previously. Twenty-four neonates were tested for each treatment. Each treatment was replicated four times (total of 96 larvae/treatment). Larval mortality and weight were recorded after 9 days.

Bombyx mori L. larvae = settings: 4th instar, within 2 days; cited from earlier work
[5] = system: Colletotrichum gloeosporioides; settings: in words; cited from earlier work
Staphylococcus aureus = settings: in words; cited from earlier work
Bacillus subtilis = settings: in words; cited from earlier work

## C=CCCCCCCCCCCCC(O)CC(O)CO (stereo not shown) [1,2,4-trihydroxy-n-heptadec-16-ene]
[1]
  fungicidal / antifungal activity: antifungal activity

## CCCCCCCCCCCCC/C=C/c1ccco1 [2-(1E-pentadecenyl)furan]
S. exigua larvae [2]; Spodoptera exigua, feed or water, 3,500 μg/g
  mortality at 3500 µg/g: 12.5%
S. exigua larvae [2]; lowest active concentration, in diet
  concentration at which S. exigua growth is inhibited / compound active: ≥ 3,500 μg/g
S. exigua larvae [3]
  reduction of larval growth compared to controls: 57.3%

## C=CCCCCCCCCCCCC(O)CC(O)COC(C)=O (stereo not shown) [1-acetoxy-2,4-dihydroxy-n-heptadec-16-ene]
[1]
  fungicidal / antifungal activity: active as a fungicide

## CCCCCCCCCCCCCCCCCc1ccco1 [2-(heptadecyl)furan (4), 2-(heptadecyl)furan]
S. exigua larvae [2]; 600 μg/g
  GI (growth index): 0.73
  percent reduction in larval weight vs control: 79.46%
  7-d Instar: 2.25 ± 0.06
  7-d Larval Weight: 6.44 ± 0.44 mg
S. exigua larvae [2]; 750 μg/g
  GI (growth index): 0.62
  percent reduction in larval weight vs control: 87.14%
  7-d Instar: 1.95 ± 0.06
  7-d Larval Weight: 4.03 ± 0.44 mg
S. exigua larvae [2]; 900 μg/g
  GI (growth index): 0.56
  percent reduction in larval weight vs control: 89.84%
  7-d Instar: 1.87 ± 0.06
  7-d Larval Weight: 3.19 ± 0.30 mg
S. exigua larvae [2]; 1050 μg/g
  GI (growth index): 0.46
  percent reduction in larval weight vs control: 93.55%
  7-d Instar: 1.65 ± 0.07
  7-d Larval Weight: 2.02 ± 0.16 mg
S. exigua larvae [2]; 1200 μg/g
  GI (growth index): 0.23
  percent reduction in larval weight vs control: 95.93%
  7-d Instar: 1.43 ± 0.08
  7-d Larval Weight: 1.28 ± 0.16 mg
S. exigua larvae [2]; 600 to 900 μg/g
  mortality: < 15%
  reduction of larval development and growth: > 75%
S. exigua larvae [2]; Spodoptera exigua, feed or water, 168 h, 600 μg/g, 7 d
  mortality at 600 µg/g: 2.08%
S. exigua larvae [2]; Spodoptera exigua, feed or water, 168 h, 750 μg/g, 7 d
  mortality at 750 µg/g: 4.2%
S. exigua larvae [2]; Spodoptera exigua, feed or water, 168 h, 900 μg/g, 7 d
  mortality at 900 µg/g: 10.4%
S. exigua larvae [2]; Spodoptera exigua, feed or water, 168 h, 1050 μg/g, 7 d
  mortality at 1050 µg/g: 16.7%
S. exigua larvae [2]; Spodoptera exigua, feed or water, 168 h, 1200 μg/g, 7 d
  mortality at 1200 µg/g: 54.2%
S. exigua larvae [2]; in diet
  LC50 (95% FL): 1206 µg/g
S. exigua larvae [2]; in words
  comparative toxicity and growth inhibition: more toxic and growth inhibitory to S. exigua than either of the unsaturated compounds (2) and (6)
  inhibition of larval growth: significantly inhibited larval growth
S. exigua larvae [2]; log (μg/g)
  Relative Growth Index (RGI) vs log concentration regression (FIG. 4): y=4.82-1.47*log(x), r^2 =0.89
S. exigua; in vivo
  Mortality (%) using LC25: 23.3%
  Survival to pupation: 76.6%
S. exigua; mean ± spread
  Weight, 9-d larvae: 54.2 ± 5.9 mg
  Weight, Pupae: 112.8 ± 2.6 mg
S. exigua; neonate-pupa, in d (unit assumed)
  Developmental times: 18.0
Neonate S. exigua; avocadofurans, larval stage
  LC25 (95% FL): 1.02(0.70-1.29) μmoles g^-1 of diet
Neonate S. exigua; in words
  effect on pupal weight (FIG. 7): significantly reduced
  larval developmental time from neonate to pupa (FIG. 8): significantly prolonged
Neonate S. exigua; in words, increasing concentrations
  Relative Growth Index (RGI) (FIG. 10): decreased with increasing concentrations
Neonate S. exigua; larval stage
  LC50: 2.1 μmoles g^-1 diet
Neonate S. exigua; lowest concentration vs controls
  concentration significantly reducing pupal weight (FIG. 7A): ≥ 3 µmol/g

## CCCCCCCCCCCCCCCCCCc1ccco1 [2-(octadecyl)furan]
S. exigua larvae [4]; in words
  effect on 9-day larval weight (FIG. 5B): comparable to the best compound described above, namely compound (1)

## CCCCCCCCCCCCCCCCc1ccco1 [2-(hexadecyl)furan]
S. exigua larvae [4]; in words
  effect on 9-day larval weight (FIG. 5B): comparable to the best compound described above, namely compound (1)

## CCCCC/C=C\C/C=C\CCCCCCCC(=O)CC(O)COC(C)=O (single isomer, unassigned) [persin, 1-acetoxy-2-hydroxy-4-oxo-heneicosa-(12Z,15Z)-diene]
Bombyx mori L. larvae
  concentration at which growth inhibited: 200 µg/g
[5]
  antifungal activity: antifungal activity

## C#CCCCCCCCCCCCC(O)CC(O)CO (stereo not shown) [1,2,4-trihydroxyheptadec-16-yne]
[1]
  fungicidal / antifungal activity: antifungal activity

## CCCCCCCCCCCCCCc1ccco1 [2-(tetradecyl)furan]
S. exigua larvae [4]; 9 d, in words
  effect on mortality (FIG. 5A): had the lowest activity
S. exigua larvae [4]; in words
  effect on 9-day larval weight (FIG. 5B): significantly reducing larval weight compared to the control
S. exigua larvae [4]; Spodoptera exigua, feed or water, 216 h, 9 d, read-out: mortality of S. exigua larvae (FIG. 5A)
  mortality at 5 µmol/g: < 50%

## C#CCCCCCCCCCCCC(O)CC(O)COC(C)=O (stereo not shown) [1-acetoxy-2,4-dihydroxyheptadec-16-yne]
[1]
  fungicidal / antifungal activity: antifungal activity

## C=CCCCCCCCCCCCc1ccco1 [2-(trideca-12-enyl)furan]
Staphylococcus aureus
  growth inhibitory activity: growth inhibitory activity
Bacillus subtilis
  growth inhibitory activity: growth inhibitory activity
